From patent publication US8058332B2, “Phosphorus-sulfur FR additives and polymer systems containing same” (priority 2006, dated 2011)

Assay type: physicochemical
Details: TGA, nitrogen 60 mL/min, heating rate 10° C./min, room temperature to 600° C.
Procedure: A useful indicator of thermal stability is a 5% weight loss temperature, which is measured by thermogravimetric analysis as follows: ˜10 milligrams of the phosphorus-sulfur FR additive is analyzed using a TA Instruments model Hi-Res TGA 2950 or equivalent device, with a 60 milliliters per minute (mL/min) flow of gaseous nitrogen and a heating rate of 10° C./min over a range of from room temperature (nominally 25° C.) to 600° C. The mass lost by the sample is monitored during the heating step, and the temperature at which the sample has lost 5% of its initial weight is designated the 5% weight loss temperature (5% WLT). This method provides a temperature at which a sample undergoes a cumulative weight loss of 5 wt %, based on initial sample weight. […] When it is to be used in a melt-processing operation with a combustible polymer, the phosphorus-sulfur FR additive should have a 5% WLT of at least 150° C.

Molecule: 2,2′,2″,2″′-[1,2,4,6-phenylenetetra(methylthio)]tetra[5,5-dimethyl-1,3,2-dioxaphosphorinane]-2,2′,2″,2″′-sulfide [Example 7]
- 5% WLT: 281 °C

Molecule: 2,2′-{1,4-phenylenebis[(dimethylsilanediyl)ethane-2,1-diylbicyclo[2.2.1]heptane-6,2-diylthio]}bis(5,5-dimethyl-1,3,2-dioxaphosphorinane) 2,2′-disulfide [Example 27]
- 5% WLT: 285 °C

Molecule: CC1(C)COP(=S)(SC/C=C/CSP2(=S)OCC(C)(C)CO2)OC1 [Example 1, 2,2′-[2-butene-1,4-diylbis(methylthio)]bis[5,5-dimethyl-1,3,2-dioxaphosphorinane]-2,2′-disulfide]
- 5% WLT: 241 °C

Molecule: CC1(C)COP(=S)(SCc2ccccc2CSP2(=S)OCC(C)(C)CO2)OC1 [Example 4, 2,2′-[1,2-phenylenebis(methylthio)]bis[5,5-dimethyl-1,3,2-dioxaphosphorinane]-2,2′-disulfide]
- 5% WLT: 240 °C

Molecule: CC1(C)COP(=O)(SCc2ccccc2CSP2(=O)OCC(C)(C)CO2)OC1 [Example 5, 2,2′-[1,2-phenylenebis(methylthio)]bis[5,5-dimethyl-1,3,2-dioxaphosphorinane]-2,2′-dioxide]
- 5% WLT: 247 °C

Molecule: Cc1c(CSP2(=S)OCC(C)(C)CO2)c(C)c(CSP2(=S)OCC(C)(C)CO2)c(C)c1CSP1(=S)OCC(C)(C)CO1 [Example 8, 2,2′,2″-[2,4,6-trimethyl-1,3,5-phenylenetris(methylthio)]tris[5,5-dimethyl-1,3,2-dioxaphosphorinane]-2,2′,2″-disulfide]
- 5% WLT: 283 °C

Molecule: CC1(C)COP(=S)(SCP(=O)(CSP2(=S)OCC(C)(C)CO2)CSP2(=S)OCC(C)(C)CO2)OC1 [Example 16]
- 5% WLT: 243 °C

Molecule: CC1(C)COP(=S)(Sc2nc(SP3(=S)OCC(C)(C)CO3)nc(SP3(=S)OCC(C)(C)CO3)n2)OC1 [Example 17, 2,2′,2″-[s-triazine-2,4,6-tris(thio)]tris[(5,5-dimethyl-1,3,2-dioxaphosphorinane)-2,2′,2″-sulfide]]
- 5% WLT: 249 °C

Molecule: CC1(C)COP(=S)(N(Cc2ccccc2)P2(=S)OCC(C)(C)CO2)OC1 [Example 18, N-benzyl-N-(5,5-dimethyl-2-sulfido-1,3,2-dioxaphosphorinan-2-yl)-5,5-dimethyl-1,3,2-dioxaphosphorinan-2-amine-2-sulfide]
- 5% WLT: 202 °C

Molecule: CC1(C)COP(=S)(Cc2ccccc2CP2(=S)OCC(C)(C)CO2)OC1 [Example 19, [1,2-phenylenebis(methylene)]bis[5,5-dimethyl[1,3,2]dioxaphosphorinane]2,2′-disulfide]
- 5% WLT: 284 °C

Molecule: CC1(C)COP(=S)(SCCCCSP2(=S)OCC(C)(C)CO2)OC1 [Example 20, 2,2′-[1,4-butylbis(methylthio)]bis[5,5-dimethyl-1,3,2-dioxaphosphorinane]-2,2′-disulfide]
- 5% WLT: 244 °C

Molecule: CC1(C)COP(=S)(SC2CC3CC2CC3SP2(=S)OCC(C)(C)CO2)OC1 (stereo not drawn) [Example 21, 2,2′-[bicyclo[2.2.1]heptane-2,5-diylbis(thio)]bis[5,5-dimethyl-1,3,2-dioxaphosphorinane]2,2′-disulfide]
- 5% WLT: 264 °C

Molecule: CCOC(=O)CC(SP1(=S)OCC(C)(C)CO1)C(=O)OCC (stereo not drawn) [Example 23]
- 5% WLT: 218 °C

Molecule: CC(CCCCCCC(C)SP1(=S)OCC(C)(C)CO1)SP1(=S)OCC(C)(C)CO1 (stereo not drawn) [Example 24, 2,2′-[decane-2,9-diylbis(thio)]bis(5,5-dimethyl-1,3,2-dioxaphosphorinane)2,2′-disulfide]
- 5% WLT: 239 °C

Molecule: CC1(C)COP(=S)(SC(c2ccccc2)c2ccccc2)OC1 [Example 25, 2-[(diphenylmethyl)thio]-5,5-dimethyl-1,3,2-dioxaphosphorinane 2-sulfide]
- 5% WLT: 238 °C

Molecule: O=P1(SC/C=C/CSP2(=O)Oc3ccccc3-c3ccccc32)Oc2ccccc2-c2ccccc21 (stereo not drawn) [Example 26]
- 5% WLT: 270 °C

Molecule: CC1(C)COP(=O)(Cc2ccc(CSP3(=S)OCC(C)(C)CO3)cc2)OC1 [Example 28, 2-({4-[(5,5-dimethyl-2-oxido-1,3,2-dioxaphosphorinan-2-yl)methyl]benzyl}thio)-5,5-dimethyl-1,3,2-dioxaphosphorinane-2-sulfide]
- 5% WLT: 257 °C

Molecule: O=P1(SCc2ccccc2CSP2(=O)Oc3ccccc3-c3ccccc32)Oc2ccccc2-c2ccccc21 (stereo not drawn) [Example 29, 6,6′-[1,2-phenylenebis(methylenethio)]bis(6H-dibenz[c, e][1,2]oxaphosphorin) 6,6′-dioxide]
- 5% WLT: 262 °C

Molecule: Cc1c(CSP2(=O)Oc3ccccc3-c3ccccc32)c(C)c(CSP2(=O)Oc3ccccc3-c3ccccc32)c(C)c1CSP1(=O)Oc2ccccc2-c2ccccc21 (stereo not drawn) [Example 30, 6,6′,6″-[(2,4,6-trimethylbenzene-1,3,5-triyl)tris(methylenethio)]tris(6H-dibenzo-[c, e][1,2]oxaphosphorin) 6,6′,6″-trioxide]
- 5% WLT: 219 °C

Molecule: CC(COCC(COCC(C)SP1(=S)OCC(C)(C)CO1)(COCC(C)SP1(=S)OCC(C)(C)CO1)COCC(C)SP1(=S)OCC(C)(C)CO1)SP1(=S)OCC(C)(C)CO1 (stereo not drawn) [Example 31]
- 5% WLT: 241 °C

Molecule: CC1(C)COP(=S)(SCc2c(CSP3(=S)OCC(C)(C)CO3)c(CSP3(=S)OCC(C)(C)CO3)c(CSP3(=S)OCC(C)(C)CO3)c(CSP3(=S)OCC(C)(C)CO3)c2CSP2(=S)OCC(C)(C)CO2)OC1 [Example 33, 2,2′,2″,2″′,2″″′,2″″″-[benzene-1,2,3,4,5,6-hexaylhexakis(methylenethio)]hexakis(5,5-dimethyl-1,3,2-dioxaphosphorinane) 2,2′,2″,2″′,2′″″,2″″″-hexasulfide]
- 5% WLT: 262 °C

Molecule: CC1(C)COP(=S)(SCCC(=O)NCNC(=O)CCSP2(=S)OCC(C)(C)CO2)OC1 [Example 36]
- 5% WLT: 220 °C

Molecule: CC1(C)COP(=S)(SC(c2ccccc2)c2cccc(C(SP3(=S)OCC(C)(C)CO3)c3ccccc3)c2)OC1 (stereo not drawn) [Example 37, 2,2′-{1,3-phenylenebis[(phenylmethylene)thio]}bis(5,5-dimethyl-1,3,2-dioxaphosphorinane) 2,2′-disulfide]
- 5% WLT: 259 °C

Molecule: S=P1(CC(c2ccccc2)c2ccccc2)OCC2(CO1)COP(=S)(SC(c1ccccc1)c1ccccc1)OC2 (stereo not drawn) [Example 38]
- 5% WLT: 240 °C
